pIC50: −log10 of the molar value.

The target in the assay is T1, human metabotropic glutamate 7 receptor (hmGlu7) (Homo sapiens, UniProt Q14831).
T1 construct: expressed in transfected cells
T1 sequence (Q14831 35-922 isoform Q14831-2): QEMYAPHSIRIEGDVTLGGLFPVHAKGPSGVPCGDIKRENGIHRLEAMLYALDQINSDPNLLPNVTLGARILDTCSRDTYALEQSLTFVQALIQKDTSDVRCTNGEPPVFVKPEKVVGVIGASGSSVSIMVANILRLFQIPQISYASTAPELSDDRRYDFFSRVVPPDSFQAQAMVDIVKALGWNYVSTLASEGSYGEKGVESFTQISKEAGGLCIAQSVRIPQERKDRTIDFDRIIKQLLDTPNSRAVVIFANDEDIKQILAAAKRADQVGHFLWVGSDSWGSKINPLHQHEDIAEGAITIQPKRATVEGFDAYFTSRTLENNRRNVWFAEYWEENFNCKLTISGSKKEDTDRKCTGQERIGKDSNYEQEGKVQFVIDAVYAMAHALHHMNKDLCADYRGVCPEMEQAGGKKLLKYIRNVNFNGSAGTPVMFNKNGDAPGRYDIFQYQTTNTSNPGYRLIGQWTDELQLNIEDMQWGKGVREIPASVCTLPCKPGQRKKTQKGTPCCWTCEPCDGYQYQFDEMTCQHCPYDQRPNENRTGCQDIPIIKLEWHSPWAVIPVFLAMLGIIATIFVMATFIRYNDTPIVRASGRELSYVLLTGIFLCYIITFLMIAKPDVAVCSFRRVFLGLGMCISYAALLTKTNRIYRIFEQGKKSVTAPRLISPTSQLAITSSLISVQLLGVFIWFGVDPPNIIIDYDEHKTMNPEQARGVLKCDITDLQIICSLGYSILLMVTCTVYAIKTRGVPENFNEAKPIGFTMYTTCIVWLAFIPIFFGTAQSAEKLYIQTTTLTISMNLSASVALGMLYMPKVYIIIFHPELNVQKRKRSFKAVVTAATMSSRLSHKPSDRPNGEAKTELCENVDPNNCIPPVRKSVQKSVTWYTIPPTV
The assay can be described thus: mGlu7 assay on HEK-expressing human mGlu7: fluorescent cell based Ca2+ mobilization assay (FLIPR), inhibition of EC80 L-AP4 response. The note with it: HEK-293 cells expressing hmGlu7; EC80 L-AP4 stimulation; mean of at least three independent experiments in duplicate; read-out: Ca2+ Flux (mean IC50). The source says: mGlu7 Assay on HEK-Expressing Human mGlu7
The cDNA encoding the human metabotropic glutamate 7 receptor (hmGlu7), (accession number NM_181874.2, NCBI Nucleotide database browser), was subcloned into an expression vector containing also the hygromycin resistance gene. In parallel, the cDNA encoding a G protein allowing redirection of the activation signal to intracellular calcium flux was subcloned into a different expression vector containing also the Puromycin resistance gene. Transfection of both these vectors into HEK293 cells with PolyFect reagent (Qiagen) according to supplier's protocol, and hygromycin and puromycin treatment allowed selection of antibiotic resistant cells which had integrated stably one or more copies of the plasmids. Positive cellular clones expressing hmGlu7 were identified in a functional assay measuring changes in calcium fluxes in response to glutamate and L-AP4 or known mGlu7 orthosteric antagonists.
HEK-293 cells expressing hmGlu7 were maintained in media containing DMEM, Fetal Bovine Serum (10%), Glutamax™ (2 mM), penicillin (100 units/mL), streptomycin (100 μg/mL), geneticin (100 μg/mL) and hygromycin-B (40 μg/mL) and puromycin (1 μg/mL) at 37° C. with 5% CO2 in a humidified atmosphere.
Fluorescent Cell Based-Ca^2+ Mobilization Assay Human mGlu7 HEK-293 cells were plated out 24 hours prior to a fluorescent cell-based calcium mobilization assay using FLIPR^384 assay (Molecular Device, Sunnyvale, CA, USA) in black-walled, clear-bottomed, poly-L-ornithine-coated 384-well plates at a density of 25,000 cells/well in a glutamine/glutamate free DMEM medium containing fetal bovine serum (10%), penicillin (100 units/mL), streptomycin (100 μg/mL) and doxycyline (1 μg/ml) at 37° C. with 5% CO2 in a humidified atmosphere.
On the day of the assay, the medium was aspirated and the cells were loaded with a 3 μM solution of Fluo4-AM (LuBioScience, Lucerne, Switzerland) in 0.03% pluronic acid. After 1 hour at 37° C./5% CO2, the non incorporated dye was removed by washing cell plate with the assay buffer. All assays were performed in a pH 7.4 buffered-solution containing 20 mM HEPES, 143 mM NaCl, 6 mM KCl, 1 mM MgSO4, 1 mM CaCl2, 0.125 mM sulfinpyrazone and 0.1% glucose.
After 10 s of basal fluorescence recording, various concentrations of the compounds of the invention were added to the cells. Changes in fluorescence levels were first monitored for 180 s in order to detect any agonist activity of the compounds. Then the cells were stimulated by an EC80 L-AP4 concentration for an additional 110 s in order to measure inhibiting activities of the compounds of the invention. EC80 L-AP4 concentration is the concentration giving 80% of the maximal glutamate response.
The concentration-response curves of L-AP4 or representative compounds of the present invention were generated using the Prism GraphPad software (Graph Pad Inc, San Diego, USA). The curves were fitted to a four-parameter logistic equation: […]
allowing determination of IC50 values.
The Table 3 below represents the mean IC50 obtained from at least three independent experiments of selected molecules performed in duplicate.
Background: A change in cytosolic calcium serves as a functional read-out for many receptors and channels.
As to `Cc1ccc(-n2c(C)c3cnn(-c4ccccc4)c(=O)c3c2C)cc1` [1-1], the pIC50 is greater than 7.00.

Consider `Cc1c2cnn(-c3ccccn3)c(=O)c2c(C)n1-c1ccc(Cl)cc1` [1-3], for which the pIC50 is 6.00 to 7.00.

For the compound `Cc1c2cnn(-c3ccccc3)c(=O)c2c(C)n1-c1ccccc1` [1-4], the pIC50 was 6.00 to 7.00.

As for `COc1ccccc1-n1ncc2c(C)n(-c3ccccc3)c(C)c2c1=O` [1-5], the pIC50 was 5.00 to 6.00.

Turning to `Cc1cccc(-n2c(C)c3cnn(-c4ccccc4)c(=O)c3c2C)c1` [1-6], the pIC50 is greater than 7.00.

Turning to `Cc1ccccc1-n1c(C)c2cnn(-c3ccccc3)c(=O)c2c1C` [1-7], the pIC50 is 6.00 to 7.00.

For `Cc1c2cnn(-c3ccccc3)c(=O)c2c(C)n1-c1ccc(Cl)cc1` [1-8], the pIC50 is 6.00 to 7.00.

For the compound `Cc1c2cnn(-c3cccnc3)c(=O)c2c(C)n1-c1ccccc1` [1-9], the pIC50 is 6.00 to 7.00.

With `Cc1c2cnn(-c3cccc(F)c3)c(=O)c2c(C)n1-c1ccccc1` [1-10], the pIC50 was 6.00 to 7.00.

As to `Cc1c2cnn(-c3ccc(F)cc3)c(=O)c2c(C)n1-c1ccccc1` [1-11], the pIC50 was greater than 7.00.

As to `COc1cccc(-n2ncc3c(C)n(-c4ccccc4)c(C)c3c2=O)c1` [1-12], the pIC50 is greater than 7.00.

For the compound `COc1ccc(-n2ncc3c(C)n(-c4ccccc4)c(C)c3c2=O)cc1` [1-13, 2-(4-Methoxyphenyl)-5,7-dimethyl-6-phenyl-2,6-dihydro-1H-pyrrolo[3,4-d]pyridazin-1-one], the pIC50 is 6.00 to 7.00.

Consider `Cc1cccc(-n2ncc3c(C)n(-c4ccccc4)c(C)c3c2=O)c1` [1-14], for which the pIC50 is greater than 7.00.

For the compound `Cc1ccc(-n2ncc3c(C)n(-c4ccccc4)c(C)c3c2=O)cc1` [1-15], the pIC50 is greater than 7.00.

As for `Cc1c2cnn(-c3cccc(C#N)c3)c(=O)c2c(C)n1-c1ccccc1` [1-16], the pIC50 is 6.00 to 7.00.

On to `Cc1c2cnn(-c3ccc(C#N)cc3)c(=O)c2c(C)n1-c1ccccc1` [1-17], for which the pIC50 is 6.00 to 7.00.

Turning to `COc1ccccc1-n1c(C)c2cnn(-c3ccccc3)c(=O)c2c1C` [1-18], the pIC50 was 6.00 to 7.00.

Consider `Cc1c2cnn(-c3ccccc3)c(=O)c2c(C)n1-c1ccccc1Cl` [1-19], for which the pIC50 was 6.00 to 7.00.

Regarding `Cc1c2cnn(-c3ccccc3Cl)c(=O)c2c(C)n1-c1ccccc1` [1-20], the pIC50 is 6.00 to 7.00.

Turning to `Cc1c2cnn(-c3ccccn3)c(=O)c2c(C)n1-c1ccccc1` [1-22], the pIC50 is 5.00 to 6.00.

`Cc1c2cnn(-c3ccccc3)c(=O)c2c(C)n1-c1ccc(N(C)C)cc1` [1-23]: the pIC50 is 6.00 to 7.00.

In the case of `COc1ccc(-n2c(C)c3cnn(-c4ccccc4)c(=O)c3c2C)cc1` [1-24], the negative logarithm of the IC50 (pIC50) was 6.00 to 7.00.

As to `Cc1c2cnn(-c3ccccc3)c(=O)c2c(C)n1-c1ccccn1` [1-25], the pIC50 is 5.00 to 6.00.

As to `CC(=O)c1ccc(-n2ncc3c(C)n(-c4ccccc4)c(C)c3c2=O)cc1` [1-27], the pIC50 was 6.00 to 7.00.

`Cc1c2cnn(-c3ccc(S(N)(=O)=O)cc3)c(=O)c2c(C)n1-c1ccccc1` [1-28]: the pIC50 was greater than 7.00.

As to `Cc1c2cnn(-c3ccccc3)c(=O)c2c(C)n1-c1ccccc1F` [1-29], the pIC50 is 6.00 to 7.00.

`Cc1c2cnn(-c3ccc(S(C)(=O)=O)cc3)c(=O)c2c(C)n1-c1ccccc1` [1-30]: the pIC50 was 6.00 to 7.00.

As for `CC(=O)c1ccc(-n2c(C)c3cnn(-c4ccccc4)c(=O)c3c2C)cc1` [1-31], the pIC50 was greater than 7.00.

For `Cc1ccc(-n2c(C)c3cnn(-c4ccccc4)c(=O)c3c2C)c(C)c1` [1-32], the pIC50 is 6.00 to 7.00.

With `Cc1c2cnn(-c3ccccc3)c(=O)c2c(C)n1-c1cccc(N2CCOCC2)c1` [1-33], the pIC50 is 6.00 to 7.00.

As to `Cc1c2cnn(-c3ccccc3)c(=O)c2c(C)n1-c1cccc(Br)c1` [1-34, 6-(3-bromophenyl)-5,7-dimethyl-2-phenyl-2,6-dihydro-1H-pyrrolo[3,4-d]pyridazin-1-one], the pIC50 was 5.00 to 6.00.

With `Cc1c2cnn(-c3ccccc3)c(=O)c2c(C)n1-c1cccc(N(C)C)c1` [1-35], the pIC50 was greater than 7.00.

With `Cc1c2cnn(-c3ccncc3)c(=O)c2c(C)n1-c1ccccc1` [1-37], the pIC50 was 6.00 to 7.00.

As to `COCc1ccc(-n2ncc3c(C)n(-c4ccccc4)c(C)c3c2=O)cc1` [1-38], the pIC50 was greater than 7.00.

With `Cc1ccc(-n2c(C)c3cnn(-c4cccnc4)c(=O)c3c2C)cc1` [1-39], the pIC50 is 6.00 to 7.00.

For the compound `Cc1cccc(-n2c(C)c3cnn(-c4cccnc4)c(=O)c3c2C)c1` [1-40], the pIC50 was 6.00 to 7.00.

For the compound `COc1cccc(-n2c(C)c3cnn(-c4cccnc4)c(=O)c3c2C)c1` [1-41], the negative logarithm of the IC50 (pIC50) is 6.00 to 7.00.

Turning to `COCCNc1ccc(-n2c(C)c3cnn(-c4ccccc4)c(=O)c3c2C)cc1` [1-42], the pIC50 is 5.00 to 6.00.

Take `COc1cccc(-n2c(C)c3cnn(-c4ccccn4)c(=O)c3c2C)c1` [1-44]: the pIC50 is 6.00 to 7.00.

For the compound `Cc1cccc(-n2c(C)c3cnn(-c4ccccn4)c(=O)c3c2C)c1` [1-45], the pIC50 is 6.00 to 7.00.

Regarding `COc1ccc(-n2c(C)c3cnn(-c4cccnc4)c(=O)c3c2C)cc1` [1-46], the pIC50 is 6.00 to 7.00.

As for `COc1ccc(-n2c(C)c3cnn(-c4ccccn4)c(=O)c3c2C)cc1` [1-47], the pIC50 was 6.00 to 7.00.

On to `Cc1ccc(-n2c(C)c3cnn(-c4ccccn4)c(=O)c3c2C)cc1` [1-48], for which the pIC50 was 6.00 to 7.00.

Take `Cc1c2cnn(-c3ccccc3)c(=O)c2c(C)n1-c1cccc(N2CCCC2=O)c1` [1-49]: the pIC50 is 6.00 to 7.00.

With `Cc1ccc(-n2ncc3c(C)n(-c4ccccc4)c(C)c3c2=O)cn1` [1-50], the pIC50 is 6.00 to 7.00.

In the case of `COc1ccc(-n2ncc3c(C)n(-c4ccccc4)c(C)c3c2=O)cn1` [1-52], the pIC50 is 6.00 to 7.00.

Take `Cc1c2cnn(-c3ccccn3)c(=O)c2c(C)n1-c1cccc(C(F)(F)F)c1` [1-53]: the negative logarithm of the IC50 (pIC50) was 6.00 to 7.00.

With `Cc1c2cnn(-c3ccccn3)c(=O)c2c(C)n1-c1cccc(C#N)c1` [1-54], the pIC50 was 5.00 to 6.00.

In the case of `Cc1c2cnn(-c3ccccn3)c(=O)c2c(C)n1-c1ccc2c(c1)OCO2` [1-55], the pIC50 was 6.00 to 7.00.

Turning to `Cc1ccc(-n2c(C)c3cnn(-c4ccccn4)c(=O)c3c2C)nc1` [1-56], the pIC50 was 5.00 to 6.00.

In the case of `Cc1c2cnn(-c3ccc(C(N)=O)cc3)c(=O)c2c(C)n1-c1ccccc1` [1-57], the pIC50 is 6.00 to 7.00.

Take `Cc1c2cnn(-c3ncccn3)c(=O)c2c(C)n1-c1ccccc1` [1-58]: the pIC50 was 5.00 to 6.00.

As to `Cc1c2cnn(-c3ccccn3)c(=O)c2c(C)n1-c1cccc(N2CCCC2)c1` [1-59], the pIC50 is greater than 7.00.

On to `CCOc1ccc(-n2ncc3c(C)n(-c4ccccc4)c(C)c3c2=O)cc1` [1-60], for which the pIC50 is 6.00 to 7.00.

On to `COc1cccc(-n2c(C)c3cnn(-c4ccc5ccccc5n4)c(=O)c3c2C)c1` [1-61], for which the pIC50 was 6.00 to 7.00.

Regarding `COc1cc(-n2c(C)c3cnn(-c4ccccn4)c(=O)c3c2C)ccn1` [1-62], the pIC50 was 5.00 to 6.00.

For `Cc1c2cnn(-c3cccnc3)c(=O)c2c(C)n1-c1cccc(N2CCOCC2)c1` [1-64], the pIC50 was 5.00 to 6.00.

For `COc1cccc(-n2c(C)c3cnn(-c4ccc(CNC(C)=O)cc4)c(=O)c3c2C)c1` [1-65], the pIC50 was greater than 7.00.

As to `COc1cccc(-n2c(C)c3cnn(-c4ccc(CO)cc4)c(=O)c3c2C)c1` [1-66], the pIC50 was greater than 7.00.

Turning to `COc1ccc(-n2ncc3c(C)n(-c4cccc(N5CCOCC5)c4)c(C)c3c2=O)cc1` [1-67], the pIC50 is 6.00 to 7.00.

In the case of `Cc1c2cnn(-c3ccc(S(N)(=O)=O)cc3)c(=O)c2c(C)n1-c1cccc(N2CCOCC2)c1` [1-68], the pIC50 is 6.00 to 7.00.

As for `COCc1ccc(-n2ncc3c(C)n(-c4cccc(N5CCOCC5)c4)c(C)c3c2=O)cc1` [1-69], the pIC50 is 6.00 to 7.00.

Turning to `COc1cccc(-n2c(C)c3cnn(-c4ccc(N5CCOCC5)cc4)c(=O)c3c2C)c1` [1-70], the pIC50 was 6.00 to 7.00.

Turning to `COc1cccc(-n2c(C)c3cnn(-c4ccc(-c5ccccc5)cc4)c(=O)c3c2C)c1` [1-71], the pIC50 was 6.00 to 7.00.

For the compound `COc1cc(-n2c(C)c3cnn(-c4ccccn4)c(=O)c3c2C)ccc1Cl` [1-72], the pIC50 was 5.00 to 6.00.

The pIC50 is −log10 of the IC50, conventionally taken in molar units.

The values above are taken from patent US20240262833A1, “FUSED HETEROCYCLIC DERIVATIVES AS NEGATIVE ALLOSTERIC MODULATORS OF MGLU7 RECEPTOR” (Addex Pharma S.A., priority 2021, published 2024).
